As a reminder, the IC50 is the midpoint of a concentration-inhibition curve. A higher IC50 goes with weaker potency in that assay. What is called MTD is the largest dose that counted as tolerated.

Like-named read-outs stand apart in the source and are kept apart here.

These results are taken from US20090099140A1, “20-Alkyl, Gemini Vitamin D3 Compounds and Methods of Use Thereof” (BioXell S.p.A., priority 2005, published 2009).

The test system of one data set is IFN-γ production. Briefly: IFN-γ production by allogeneic T cell activation in the mixed leukocyte response (MLR). The data set is classed as cell-based. The following applies: MLR of allogeneic PBMC from 2 different donors, 5 days, IFN-γ by ELISA, 50% inhibition of IFN-γ production. How it is done: Immature dendritic cells (DC) were prepared as described in Romani, N. et al., J. Immunol. Meth. 196:137. IFN-γ production by allogeneic T cell activation in the mixed leukocyte response (MLR) was determined as described in Penna, G., et al., J. Immunol., 164: 2405-2411 (2000).
Briefly, peripheral blood mononuclear cells (PBMC) were separated from buffy coats by Ficoll gradient and the same number (3×105) of allogeneic PBMC from 2 different donors were co-cultured in 96-well flat-bottom plates. After 5 days, IFN-γ production in the MLR assay was measured by ELISA and the results expressed as amount (nM) of test compound required to induce 50% inhibition of IFN-γ production (IC50) (Table 1).
(In general: An ELISA detects its analyte on a solid surface through an enzyme-linked reagent.)

Data set [1] is described as follows: Determination of maximum tolerated dose (MTD), highest oral dose without hypercalcemia (serum calcium). The data set is classed as in vivo. The following applies: in vivo, po. How it is done: The maximum tolerated dose of the vitamin D3 compounds of the invention were determined in eight week-old female C57BL/6 mice (3 mice/group) dosed orally (0.1 ml/mouse) with various concentrations of Vitamin D3 analogs daily for four days. Analogs were formulated in miglyol for a final concentration of 10, 30, 100 and 300 μg/kg when given at 0.1 ml/mouse p.o. daily. Blood for serum calcium assay was drawn by tail bleed on day five, the final day of the study. Serum calcium levels were determined using a colorimetric assay (Sigma Diagnostics, procedure no. 597). The highest dose of analog tolerated without inducing hypercalcemia (serum calcium >10.7 mg/dl) was taken as the maximum tolerated does (MTD).

The mark [2] stands for this setting: mouse, eight week-old female C57BL/6 mice, p.o. daily for four days in miglyol, highest dose without hypercalcemia (serum calcium >10.7 mg/dl) on day five, read-out: MTD (mice).

With “(20S)-1,25-Dihydroxy-20-[(2E)-5,5,5-trifluoro-4-hydroxy-4-trifluoromethyl-pent-2-enyl]-cholecalciferol [Compound 6]”, it took 0.044 nM to reach half-maximal inhibition in the data set on IFN-γ production (IC50).

Consider `[2H]C([2H])([2H])C(O)(CCC[C@](C)(C/C=C/C(O)(C(F)(F)F)C(F)(F)F)[C@H]1CCC2/C(=C/C=C3/C[C@@H](O)C[C@H](F)C3=C)CCC[C@@]21C)C([2H])([2H])[2H]` (stereo partly drawn) [Compound 30, 1α-Fluoro-25-hydroxy-20R-20-(4-hydroxy-5,5,5-trideutero-4-trideuteromethyl-pentyl)-23E-ene-26,27-hexafluorocholecalciferol], for which the IC50 in the data set on IFN-γ production (120 h) came to 0.012 nM.

With `[2H]C([2H])([2H])C(O)(CCCC(C)(C/C=C\C(O)(C(F)(F)F)C(F)(F)F)[C@H]1CCC2/C(=C/C=C3C[C@@H](O)C[C@H](O)C3)CCC[C@@]21C)C([2H])([2H])[2H]` (stereo partly drawn) [Compound 17, 1,25-Dihydroxy-20S-20-(4-hydroxy-5,5,5-trideutero-4-trideuteromethyl-pentyl)-23Z-ene-26,27-hexafluoro-19-nor-cholecalciferol], the MTD at 4 days in data set [1] (setting [2]) was 0.3 µg/kg. Further, the IC50 in the data set with IFN-γ production (120 h) is 0.0025 nM.

Consider `C=C1/C(=C\C=C2/CCC[C@@]3(C)C2CC[C@@H]3[C@](C)(CC#CC(O)(C(F)(F)F)C(F)(F)F)CCCC(C)(C)O)CC(O)C[C@@H]1F` (stereo partly drawn) [Compound 13, (20S)-1α-Fluoro-25-hydroxy-20-(5,5,5-trifluoro-4-hydroxy-4-trifluoromethyl-pent-2-ynyl)-cholecalciferol], for which the MTD at 4 days in data set [1] (setting [2]) is 100 µg/kg. This molecule also gave an IC50 in the data set on IFN-γ production (120 h) of 0.358 nM.

On to `C=C1/C(=C\C=C2/CCC[C@@]3(C)C2CC[C@@H]3[C@@](C)(C/C=C/C(O)(C(F)(F)F)C(F)(F)F)CCCC(C)(C)O)C[C@@H](O)C[C@@H]1O` (stereo partly drawn) [Compound 9, (20R)-1,25-Dihydroxy-20-[(2E)-5,5,5-trifluoro-4-hydroxy-4-trifluoromethyl-pent-2-enyl]-cholecalciferol], for which the MTD at 4 days in data set [1] (setting [2]) is 0.1 µg/kg. For the same molecule, in the data set on IFN-γ production (120 h), inhibition was half-maximal at 0.049 nM (IC50).

As to `C=C1/C(=C\C=C2/CCC[C@@]3(C)C2CC[C@@H]3[C@](C)(C/C=C\C(O)(C(F)(F)F)C(F)(F)F)CCCC(C)(C)O)CC(O)C[C@@H]1O` (stereo partly drawn) [Compound 5, (20S)-1,25-Dihydroxy-20-(5,5,5-trifluoro-4-hydroxy-4-trifluoromethyl-pent-(2Z)-enyl)cholecalciferol], the MTD at 4 days in data set [1] (setting [2]) was 0.3 µg/kg. Further, the IC50 in the data set on IFN-γ production (120 h) was found to be 0.042 nM.

In the case of `C=C1/C(=C\C=C2/CCC[C@@]3(C)C2CC[C@@H]3C(C)(CCCC(C)(C)O)CCCC(C)(C)O)CC(O)C[C@@H]1F` (stereo partly drawn) [Compound 3, 1α-Fluoro-25-hydroxy-20-(4-hydroxy-4-methyl-pentyl)-cholecalciferol], in data set [1] (female, C57BL/6, mouse), the MTD at 4 days is over 300 µg/kg. In addition, the IC50 in the data set with IFN-γ production (120 h) amounted to 6.27 nM.

In the case of `C=C1/C(=C\C=C2/CCC[C@@]3(C)C2CC[C@@H]3[C@@](C)(C/C=C\C(O)(C(F)(F)F)C(F)(F)F)CCCC(C)(C)O)C[C@@H](O)C[C@@H]1O` (stereo partly drawn) [Compound 8, (20R)-1,25-Dihydroxy-20-[(2Z)-5,5,5-trifluoro-4-hydroxy-4-trifluoromethyl-pent-2-enyl]-cholecalciferol], the MTD at 4 days in data set [1] (setting [2]) is 0.3 µg/kg. In the data set on IFN-γ production (120 h), the IC50 came to 0.057 nM.

Consider `C=C1/C(=C\C=C2/CCC[C@@]3(C)C2CC[C@@H]3C(C)(CCCC(C)(C)O)CCCC(C)(C)O)CC(O)C[C@@H]1O` (stereo partly shown) [Compound 1, 1,25-Dihydroxy-20-(4-hydroxy-4-methyl-pentyl)cholecalciferol], for which the MTD at 4 days in data set [1] (setting [2]) was 3 µg/kg. The molecule also registered an IC50 in the data set with IFN-γ production (120 h) of 0.518 nM.

With `[2H]C([2H])([2H])C(O)(CCCC(C)(C/C=C\C(O)(C(F)(F)F)C(F)(F)F)[C@H]1CCC2/C(=C/C=C3/C[C@@H](O)C[C@H](F)C3=C)CCC[C@@]21C)C([2H])([2H])[2H]` (stereo partly drawn) [Compound 18, 1α-Fluoro-25-hydroxy-20S-20-(4-hydroxy-5,5,5-trideutero-4-trideuteromethyl-pentyl)-23Z-ene-26,27-hexafluorocholecalciferol], in data set [1] (setting [2]), the MTD at 4 days is 100 µg/kg. Also, in the data set with IFN-γ production (120 h), inhibition was half-maximal at 0.219 nM (IC50).

As to `C=C1/C(=C\C=C2/CCC[C@@]3(C)C2CC[C@@H]3[C@](C)(CC#CC(O)(C(F)(F)F)C(F)(F)F)CCCC(C)(C)O)CC(O)C[C@@H]1O` (stereo partly drawn) [Compound 4, (20S)-1,25-Dihydroxy-20-(5,5,5-trifluoro-4-hydroxy-4-trifluoromethyl-pent-2-ynyl)cholecalciferol], the MTD at 4 days in data set [1] (setting [2]) is 0.3 µg/kg. Also, it took 0.049 nM to reach half-maximal inhibition with IFN-γ production (120 h) (IC50).

For the molecule `CC(C)(O)CCC[C@@](C)(C/C=C\C(O)(C(F)(F)F)C(F)(F)F)[C@H]1CCC2/C(=C/C=C3/CC(O)C[C@H](O)C3)CCC[C@@]21C` (stereo partly drawn) [Compound 11, (20S)-1,25-Dihydroxy-20-[(2Z)-5,5,5-trifluoro-4-hydroxy-4-trifluoromethyl-pent-2-enyl]-19-nor-cholecalciferol], the MTD at 4 days in data set [1] (setting [2]) is 3 µg/kg. In the data set with IFN-γ production (120 h), this molecule came in with an IC50 of 0.253 nM.

Regarding `[2H]C([2H])([2H])C(O)(CCC[C@](C)(C/C=C\C(O)(C(F)(F)F)C(F)(F)F)[C@H]1CCC2/C(=C/C=C3/C[C@@H](O)C[C@H](F)C3=C)CCC[C@@]21C)C([2H])([2H])[2H]` (stereo partly drawn) [Compound 27, 1α-Fluoro-25-hydroxy-20R-20-(4-hydroxy-5,5,5-trideutero-4-trideuteromethyl-pentyl)-23Z-ene-26,27-hexafluorocholecalciferol], the IC50 in the data set with IFN-γ production (120 h) was 0.307 nM.

`[2H]C([2H])([2H])C(O)(CCC[C@@](C)(CC#CC(O)(C(F)(F)F)C(F)(F)F)[C@H]1CCC2/C(=C/C=C3/C[C@@H](O)C[C@H](F)C3=C)CCC[C@@]21C)C([2H])([2H])[2H]` (stereo partly drawn) [Compound 24, 1α-Fluoro-25-hydroxy-20S-20-(4-hydroxy-5,5,5-trideutero-4-trideuteromethyl-pentyl)-23-yne-26,27-hexafluorocholecalciferol]: the MTD at 4 days in data set [1] (setting [2]) was 10 µg/kg. This molecule registered a half-inhibitory concentration (IC50) in the data set with IFN-γ production (120 h) of 0.0213 nM.

Turning to `C=C1/C(=C\C=C2/CCC[C@@]3(C)C2CC[C@@H]3[C@@](C)(CC#CC(O)(C(F)(F)F)C(F)(F)F)CCCC(C)(C)O)C[C@@H](O)C[C@@H]1O` (stereo partly drawn) [Compound 7, (20R)-1,25-Dihydroxy-20-(5,5,5-trifluoro-4-hydroxy-4-trifluoromethyl-pent-2-ynyl)-cholecalciferol], half-maximal inhibition with IFN-γ production (120 h) (IC50) was put at 0.038 nM. This lies in the picomolar range.

For `CC(C)(O)CCCC(C)(CCCC(C)(C)O)[C@H]1CCC2/C(=C/C=C3/CC(O)C[C@H](O)C3)CCC[C@@]21C` (stereo partly shown) [Compound 2, 1,25-Dihydroxy-20-(4-hydroxy-4-methyl-pentyl)-19-nor-cholecalciferol], the maximum tolerated dose (MTD) at 4 days in data set [1] (setting [2]) was under 30 µg/kg. Further, it took 0.744 nM to reach half-maximal inhibition with IFN-γ production (120 h) (IC50).

In the case of `C=C1/C(=C\C=C2/CCC[C@@]3(C)C2CC[C@@H]3[C@](C)(C/C=C\C(O)(C(F)(F)F)C(F)(F)F)CCCC(C)(C)O)CC(O)C[C@@H]1F` (stereo partly drawn) [Compound 14, (20S)-1α-Fluoro-25-hydroxy-20-[(2Z)-5,5,5-trifluoro-4-hydroxy-4-trifluoromethyl-pent-2-enyl]-cholecalciferol], the MTD at 4 days in data set [1] (setting [2]) was 100 µg/kg. Further, in the data set on IFN-γ production (120 h), the IC50 was found to be 1.01 nM.

As for `CC(C)(O)CCC[C@@](C)(CC#CC(O)(C(F)(F)F)C(F)(F)F)[C@H]1CCC2/C(=C/C=C3/CC(O)C[C@H](O)C3)CCC[C@@]21C` (stereo partly drawn) [Compound 10, (20S)-1,25-Dihydroxy-20-(5,5,5-trifluoro-4-hydroxy-4-trifluoromethyl-pent-2-ynyl)-19-nor-cholecalciferol], the MTD at 4 days in data set [1] (setting [2]) is 0.3 µg/kg. The same molecule returned an IC50 in the data set with IFN-γ production (120 h) of 0.0436 nM.

In turn, `[2H]C([2H])([2H])C(O)(CCC[C@](C)(CC#CC(O)(C(F)(F)F)C(F)(F)F)[C@H]1CCC2/C(=C/C=C3/C[C@@H](O)C[C@H](F)C3=C)CCC[C@@]21C)C([2H])([2H])[2H]` (stereo partly drawn) [Compound 33, 1α-Fluoro-25-hydroxy-20R-20-(4-hydroxy-5,5,5-trideutero-4-trideuteromethyl-pentyl)-23-yne-26,27-hexafluorocholecalciferol] showed an IC50 with IFN-γ production (120 h) of 0.0132 nM. In other words, the picomolar range.

Regarding `[2H]C([2H])([2H])C(O)(CCC[C@](C)(C/C=C\C(O)(C(F)(F)F)C(F)(F)F)[C@H]1CCC2/C(=C/C=C3/C[C@@H](O)C[C@H](O)C3=C)CCC[C@@]21C)C([2H])([2H])[2H]` (stereo partly drawn) [Compound 25, 1,25-Dihydroxy-20R-20-(4-hydroxy-5,5,5-trideutero-4-trideuteromethyl-pentyl)-23Z-ene-26,27-hexafluorocholecalciferol], the MTD at 4 days in data set [1] (setting [2]) was 3 µg/kg. Also, the IC50 in the data set with IFN-γ production (120 h) is 0.001 nM.

`[2H]C([2H])([2H])C(O)(CCC[C@@](C)(C/C=C\C(O)(C(F)(F)F)C(F)(F)F)[C@H]1CCC2/C(=C/C=C3/C[C@@H](O)C[C@H](O)C3=C)CCC[C@@]21C)C([2H])([2H])[2H]` (stereo partly drawn) [Compound 16, 1,25-Dihydroxy-20S-20-(4-hydroxy-5,5,5-trideutero-4-trideuteromethyl-pentyl)-23Z-ene-26,27-hexafluorocholecalciferol]: the MTD at 4 days in data set [1] (setting [2]) is 0.3 µg/kg. In the data set on IFN-γ production (120 h), this molecule gave an IC50 of 0.0111 nM.
